Results as given in patent US20200330444A1, “[…] FOR TREATING PAIN AND RELATED DISEASES AND CONDITIONS, AND COMPOSITIONS AND METHODS THEREOF” (NeuForm Pharmaceuticals, Inc., priority 2016, published 2020).

How the values were obtained:
CYP2D6 = CYP2D6 (Homo sapiens, UniProt P10635); assay: In vitro metabolic stability on incubation with CYP2D6; format: in vitro ADME
Procedure: (§1) The stability time course samples were prepared and extracted immediately by protein precipitation method using acetonitrile containing 575 ng/mL carbutamide, 100 ng/mL loxapine and 10 ng/mL longdaysin as the internal standard (IS). The samples were analyzed on a Waters Acquity UPLC system coupled with a mass dspectrometer. The peak area ratios of respective extracted ion chromatograms were used for relative comparison.
(§2) 300 μL of the above 2.0 μM combo solutions were added into 1.5 mL of Eppendof tubes. The samples were put in 37° C. incubator for 10 minutes. Then 300 of 37° C. pre-warmed 0.35 mg/mL of human liver microsome (or 37.5 pmol/mL CYP3A4, or 25 pmol/mL CYP2D6) and 2.6 mM NADPH in 100 mM potassium phosphate buffer pH 7.4 (contains 3.3 mM MgCl2) was added to initiate the enzyme activity. 50.0 μL of the reaction mixture was put into 150 μL of acetonitrile with 100 ng/mL loxapine, 10 ng/ml longdaysin (IS) to stop the reaction at 0′, 15′, 30′, 60′, 2 hours, 3 hours and 4 hours. The samples were vortexed and centrifuged at 13,000 g for approximately 5 min, then supernatants were taken and stored in −20° C. freezer. After the last samples were taken and they were placed in −20° C. at least 1 hour. All samples were put into a refrigerator at approximate 4° C. for 30 min. The samples were vortexed. […]

[1] = In vitro metabolic stability in human liver microsome suspensions; format: in vitro ADME
Procedure: as §1, §2

Chain of CYP2D6 (P10635 whole entry): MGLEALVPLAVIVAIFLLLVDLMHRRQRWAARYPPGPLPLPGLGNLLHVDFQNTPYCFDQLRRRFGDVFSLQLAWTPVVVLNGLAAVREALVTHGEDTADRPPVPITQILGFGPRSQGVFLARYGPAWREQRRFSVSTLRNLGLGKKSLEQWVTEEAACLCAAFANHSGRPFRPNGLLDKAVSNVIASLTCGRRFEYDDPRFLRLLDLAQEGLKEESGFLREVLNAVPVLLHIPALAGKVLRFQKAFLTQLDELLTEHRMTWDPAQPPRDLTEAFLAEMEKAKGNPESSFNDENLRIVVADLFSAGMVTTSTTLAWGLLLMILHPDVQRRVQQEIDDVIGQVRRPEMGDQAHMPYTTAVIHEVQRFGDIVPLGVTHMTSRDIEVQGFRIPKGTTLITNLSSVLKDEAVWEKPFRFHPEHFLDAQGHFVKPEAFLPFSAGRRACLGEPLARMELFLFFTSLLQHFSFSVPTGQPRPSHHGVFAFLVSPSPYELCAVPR

| SMILES | Half-life increased by, vs oliceridine (CYP2D6) [%] | Concentration after incubation higher than that of the non-deuterated compound ([1]; human liver microsome, 60 min) [%] | Half-life increased by, vs oliceridine ([1]; incubation with human liver microsome) [%] |
| --- | --- | --- | --- |
| [2H]C([2H])(C[C@@]1(c2ccccn2)CCOC2(CC([2H])([2H])C([2H])([2H])C2)C1)NCc1sccc1OC [D6-Oliceridine-a] | 200 | 32 | 29 |
| [2H]C([2H])(C[C@@]1(c2ccccn2)CC([2H])([2H])OC2(CC([2H])([2H])C([2H])([2H])C2)C1)NCc1sccc1OC [D8-oliceridine] | 200 |  |  |
